Common to all, as to format: functional, cell-based
For experiment [1], the target named is Transient receptor potential cation channel subfamily V member 1 (Homo sapiens) (UniProt Q8NER1). As to the kind of experiment: Agonist activity at human TRPV1 expressed HEK293 cells assessed as reduction of capsaicin-induced calcium mobilization at 1 uM. The arrangement: scale not given: the % may be the effect or the level left.
Experiment [2] shares this target. As to the kind of experiment: Agonist activity at human TRPV1 expressed HEK293 cells assessed as calcium mobilization at 10 uM.
Experiment [3] shares this target. In words: Agonist activity at human TRPV1 expressed HEK293 cells assessed as calcium mobilization at 12 uM.

Transient receptor potential cation channel subfamily V member 1 (Homo sapiens), sequence (Q8NER1 whole entry): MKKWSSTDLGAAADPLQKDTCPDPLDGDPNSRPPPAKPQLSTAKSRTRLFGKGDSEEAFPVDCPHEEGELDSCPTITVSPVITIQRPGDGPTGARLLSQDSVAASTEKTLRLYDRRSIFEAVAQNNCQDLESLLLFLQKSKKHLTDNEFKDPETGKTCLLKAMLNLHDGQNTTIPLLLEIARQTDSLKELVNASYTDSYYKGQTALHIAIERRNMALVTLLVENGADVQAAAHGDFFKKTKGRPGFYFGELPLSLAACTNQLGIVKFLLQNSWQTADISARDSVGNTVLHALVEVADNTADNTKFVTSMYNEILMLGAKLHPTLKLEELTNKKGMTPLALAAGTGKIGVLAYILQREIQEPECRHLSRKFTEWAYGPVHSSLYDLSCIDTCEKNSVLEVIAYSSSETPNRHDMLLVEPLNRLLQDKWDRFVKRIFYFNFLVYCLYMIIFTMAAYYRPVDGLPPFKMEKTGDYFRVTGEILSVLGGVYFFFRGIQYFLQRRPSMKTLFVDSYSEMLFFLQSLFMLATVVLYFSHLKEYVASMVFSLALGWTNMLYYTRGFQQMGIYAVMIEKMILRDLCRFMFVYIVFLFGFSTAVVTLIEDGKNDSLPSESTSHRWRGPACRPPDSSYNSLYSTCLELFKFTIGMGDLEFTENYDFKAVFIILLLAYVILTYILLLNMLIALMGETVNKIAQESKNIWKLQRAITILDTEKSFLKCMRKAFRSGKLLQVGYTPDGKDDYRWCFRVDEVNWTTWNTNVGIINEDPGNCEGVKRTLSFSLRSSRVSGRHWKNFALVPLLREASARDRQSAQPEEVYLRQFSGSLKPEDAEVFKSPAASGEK

As for `CCCCC/C=C/C/C=C/C/C=C/C/C=C/CCCC(=O)N1CCc2cc(O)c(O)cc2C1C` (configuration not stated), the values for the Activity in experiment [1] and in experiment [2] were 40% and 55%, respectively.
Taken in the same sequence, the figures for `CCCCC/C=C/C/C=C/CCCCCCCC(=O)N1CCc2cc(O)c(O)cc2C1C` (configuration not stated) were 35% and 36%.
As to `CC/C=C/C/C=C/C/C=C/C/C=C/C/C=C/C/C=C/CCC(=O)N1CCc2cc(OC)c(O)cc2C1C` (configuration not stated), the figures for the Activity in experiment [1] and in experiment [3] were 5% and 14%, respectively.
For `CCCCC/C=C/C/C=C/CCCCCCCC(=O)N1CCc2cc(OC)c(O)cc2C1C` (configuration not stated), the Activity in experiment [1] amounted to 25%; in experiment [2], 11%.
On to `CC/C=C/C/C=C/C/C=C/C/C=C/C/C=C/C/C=C/CCC(=O)N1CCc2cc(O)c(O)cc2C1C` (configuration not stated), for which the Activity worked out at 45% in experiment [1] and 25% in experiment [2].
Taken in the same sequence, the figures for `CCCCC/C=C/C/C=C/C/C=C/C/C=C/CCCC(=O)N1CCc2cc(OC)c(O)cc2C1C` (configuration not stated) were 35% and 18%.
